# Data: PubChem BioAssay (NCI)
#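 Each compound was tested at five concentrations against cells in 96-well plates for 48 hours. GI50 marks 50% less growth. TGI: total growth inhibition.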
# Tests used:
# Test in all cases: NCI tumour cell line growth inhibition, 48 h
# ACHN renal = test system: ACHN renal
# EKVX NSCLC = test system: EKVX NSCLC
# MCF7 breast = test system: MCF7 breast
# RXF 393 renal = test system: RXF 393 renal
# KM12 colon = test system: KM12 colon
# U251 CNS = test system: U251 CNS
# HOP-92 NSCLC = test system: HOP-92 NSCLC
# HT29 colon = test system: HT29 colon
# OVCAR-8 ovarian = test system: OVCAR-8 ovarian
# SW-620 colon = test system: SW-620 colon
SMILES,TGI (ACHN renal),TGI (EKVX NSCLC),TGI (MCF7 breast),TGI (RXF 393 renal),TGI (KM12 colon),TGI (U251 CNS),TGI (HOP-92 NSCLC),TGI (HT29 colon),TGI (OVCAR-8 ovarian),TGI (SW-620 colon),GI50 (ACHN renal),GI50 (EKVX NSCLC),GI50 (MCF7 breast),GI50 (RXF 393 renal),GI50 (KM12 colon),GI50 (U251 CNS),GI50 (HOP-92 NSCLC),GI50 (HT29 colon),GI50 (OVCAR-8 ovarian),GI50 (SW-620 colon)
Clc1ccc(CCNCCNC2(c3cc4ccccc4s3)CCCCC2)cc1Cl,3.1 µM,3.99 µM,3.18 µM,4 µM,3.1 µM,2.99 µM,3.15 µM,3.59 µM,3.54 µM,3.48 µM,–,–,–,–,–,–,–,–,–,–
O=C1C(Nc2ccc(S(=O)(=O)Nc3cnc4ccccc4n3)cc2)=CC(=Nc2ccc(S(=O)(=O)Nc3cnc4ccccc4n3)cc2)c2ccccc21,> 54.9 µM,36.1 µM,42.4 µM,32.3 µM,31 µM,34 µM,28.7 µM,36.3 µM,39.5 µM,32.1 µM,–,–,–,–,–,–,–,–,–,–
COc1ccc2cc(CNCCOCCOCCNCc3ccc4cc(OC)ccc4c3)ccc2c1,3.01 µM,3.21 µM,2.5 µM,3.18 µM,2.27 µM,8.46 µM,3.05 µM,0.394 µM,2.97 µM,3.69 µM,–,–,–,–,–,–,–,–,–,–
C1=Nc2ccc(cc2)-c2ccc(cc2)N=Cc2ccccc2OCc2cccc(n2)COc2ccccc21,> 72.9 µM,> 100 µM,> 100 µM,> 84 µM,> 100 µM,> 42.8 µM,> 60 µM,> 100 µM,> 100 µM,> 100 µM,–,–,–,–,–,–,–,–,–,–
Cc1cc2nc3c(C)c4ccccc4c(C)n3c2cc1C,> 10 µM,> 10 µM,> 10 µM,8.66 µM,> 10 µM,> 10 µM,8.45 µM,> 10 µM,> 10 µM,> 10 µM,–,–,–,–,–,–,–,–,–,–
COc1ccc(C2=Nn3c(nc4sc5c(c4c3=O)CCCC5)SC2)cc1,> 100 µM,> 100 µM,> 100 µM,> 100 µM,> 100 µM,> 100 µM,> 100 µM,> 100 µM,> 100 µM,> 100 µM,–,–,–,–,–,–,–,–,–,–
CN1CN(c2ccccc2)C2(CCN(C(=O)OC(C)(C)C)CC2)C1=O,> 100 µM,> 100 µM,> 100 µM,> 100 µM,> 100 µM,> 100 µM,> 100 µM,> 100 µM,> 100 µM,> 100 µM,–,–,–,–,–,–,–,–,–,–
Cn1c(SCc2ccc([N+](=O)[O-])cc2)nnc1C12CC3CC(CC(C3)C1)C2,> 10 µM,> 10 µM,> 10 µM,> 10 µM,> 10 µM,> 10 µM,> 10 µM,> 10 µM,> 10 µM,> 10 µM,–,–,–,–,–,–,–,–,–,–
Cc1ccnc2[nH]c(-c3ccc(Cl)cc3)cc(=O)c12,> 100 µM,> 100 µM,> 100 µM,> 100 µM,> 100 µM,> 100 µM,> 100 µM,> 100 µM,> 100 µM,> 100 µM,–,–,–,–,–,–,–,–,–,–
O=c1oc2c(Cl)cc(Cl)cc2cc1-c1cn2c(n1)sc1ccccc12,> 100 µM,> 100 µM,> 100 µM,> 100 µM,> 100 µM,> 100 µM,> 100 µM,> 100 µM,> 100 µM,92.4 µM,–,–,–,–,–,–,–,–,–,–
CCc1c[n+]2c(cc1C1=CN3c4ccccc4[C@]45CCN6C/C(=C/CO)[C@H](C[C@H]64)[C@@H]([C@@H]1O)[C@H]35)-c1[nH]c3ccccc3c1CC2,> 50 µM,> 50 µM,> 50 µM,> 50 µM,> 50 µM,> 50 µM,> 50 µM,> 50 µM,> 50 µM,> 50 µM,–,–,–,–,–,–,–,–,–,–
Nc1nc(Cl)cc(Oc2ccc(Cl)cc2)n1,> 100 µM,> 100 µM,> 100 µM,> 100 µM,> 100 µM,> 100 µM,> 100 µM,> 100 µM,> 100 µM,> 100 µM,–,–,–,–,–,–,–,–,–,–
C#CCn1c(=O)c2cc(OC)c(OC)cc2n(CC#C)c1=O,> 10 µM,> 10 µM,> 10 µM,> 10 µM,> 10 µM,> 10 µM,> 10 µM,> 10 µM,> 10 µM,> 10 µM,–,–,–,–,–,–,–,–,–,–
Cc1[nH]c(-c2ccccc2)c(O)c1C(=O)OC1CC(C)CCC1C(C)C (stereo not given),30 µM,23.9 µM,14.9 µM,24.3 µM,27.9 µM,28.9 µM,32.7 µM,27.5 µM,29.9 µM,29.2 µM,–,–,–,–,–,–,–,–,–,–
Clc1cccc(C=NC23CC4CC(CC(C4)C2)C3)c1Cl,> 10 µM,> 10 µM,> 10 µM,> 10 µM,> 10 µM,> 10 µM,> 10 µM,> 10 µM,> 10 µM,> 10 µM,–,–,–,–,–,–,–,–,–,–
C=C1C(O)C2OC(=O)C(=C)C2C(OC(=O)/C(C)=C/C)CC2(C)OC2C2OC12 (stereo not given),15.5 µM,33 µM,22.6 µM,35.6 µM,11.6 µM,> 100 µM,65.4 µM,33.7 µM,> 100 µM,> 100 µM,–,–,–,–,–,–,–,–,–,–
COc1cc(/C=[N+](\[O-])c2ccccc2Cl)ccc1OC(=S)S,> 100 µM,> 100 µM,> 100 µM,89.3 µM,41.8 µM,> 100 µM,49.2 µM,> 100 µM,> 100 µM,> 100 µM,–,–,–,–,–,–,–,–,–,–

SMILES,TGI (ACHN renal),TGI (EKVX NSCLC),TGI (MCF7 breast),TGI (RXF 393 renal),TGI (KM12 colon),TGI (U251 CNS),TGI (HOP-92 NSCLC),TGI (HT29 colon),TGI (OVCAR-8 ovarian),TGI (SW-620 colon),GI50 (ACHN renal),GI50 (EKVX NSCLC),GI50 (MCF7 breast),GI50 (RXF 393 renal),GI50 (KM12 colon),GI50 (U251 CNS),GI50 (HOP-92 NSCLC),GI50 (HT29 colon),GI50 (OVCAR-8 ovarian),GI50 (SW-620 colon)
CCOC(=O)/C(C(N)=O)=C(/O)c1cnccn1,> 100 µM,> 100 µM,> 100 µM,> 100 µM,> 100 µM,> 100 µM,> 100 µM,> 100 µM,> 100 µM,> 100 µM,–,–,–,–,–,–,–,–,–,–
CCOC(=O)C(NS(=O)(=O)c1ccccc1)(C(F)(F)F)P(=O)(OCC(C)C)OCC(C)C (stereo not given),> 100 µM,> 100 µM,> 100 µM,> 100 µM,> 100 µM,> 100 µM,> 100 µM,> 100 µM,> 100 µM,> 100 µM,–,–,–,–,–,–,–,–,–,–
CN(C)CC(O)CNC(=O)Nc1ccccc1 (stereo not given),> 100 µM,> 100 µM,> 100 µM,> 100 µM,> 100 µM,> 100 µM,> 100 µM,> 100 µM,> 100 µM,> 100 µM,–,–,–,–,–,–,–,–,–,–
COc1ccc(/C=C2\CCC(C)(CN(C)C)C2=O)cc1Br (stereo not given),> 62.6 µM,49.3 µM,42.1 µM,35.7 µM,28.3 µM,45.1 µM,> 85.8 µM,49.6 µM,32.9 µM,38.4 µM,–,–,–,–,–,–,–,–,–,–
Nc1ccc(Oc2ccc(C34CC5CC(C3)CC(c3ccc(Oc6ccc(N)c(O)c6)cc3)(C5)C4)cc2)cc1O,3.5 µM,3.63 µM,8.95 µM,3.33 µM,3.62 µM,2.72 µM,4.48 µM,5.16 µM,4.86 µM,> 100 µM,–,–,–,–,–,–,–,–,–,–
O=C(/C=C/c1cc2ccccc2[nH]c1=O)c1ccc(O)cc1,8.86 µM,27.2 µM,16.8 µM,3.23 µM,4.5 µM,10.9 µM,23.2 µM,12.1 µM,21.1 µM,4.45 µM,2.67 µM,13.4 µM,3.49 µM,1.65 µM,1.89 µM,2.6 µM,3.26 µM,3.61 µM,3.23 µM,1.89 µM
O=C(NC12CC3CC(CC(C3)C1)C2)n1cnc2c(Cl)ncnc21,50.8 µM,71.8 µM,> 100 µM,> 100 µM,> 100 µM,92.3 µM,> 100 µM,70.3 µM,66.4 µM,> 100 µM,–,–,–,–,–,–,–,–,–,–
CCCCCCCCC/C=C1/CC(CO)(COC(=O)C2CCCCC2)OC1=O (stereo not given),> 100 µM,> 100 µM,> 100 µM,> 100 µM,> 100 µM,> 100 µM,> 100 µM,> 100 µM,> 100 µM,> 100 µM,–,–,–,–,–,–,–,–,–,–
OC[C@@H](O)[C@H](O)[C@H](O)[C@@H](O)C1SCCCS1,> 100 µM,> 100 µM,> 100 µM,> 100 µM,> 100 µM,> 100 µM,92.5 µM,> 100 µM,> 100 µM,> 100 µM,–,–,–,–,–,–,–,–,–,–
Cc1nc(-n2nc(-c3ccccc3)cc2-c2ccccc2)sc1C(/C=C\c1ccc([N+](=O)[O-])cc1)=N/NC(=S)NN,> 82 µM,> 100 µM,35.1 µM,> 59 µM,> 100 µM,> 100 µM,> 100 µM,> 72 µM,28.6 µM,> 100 µM,–,–,–,–,–,–,–,–,–,–
CCOP(=O)(OCC)C(Cc1cn(S(=O)(=O)c2ccc(C)cc2)cn1)C(=O)O (stereo not given),> 100 µM,> 100 µM,> 100 µM,> 100 µM,> 100 µM,> 100 µM,> 100 µM,> 100 µM,> 100 µM,> 100 µM,–,–,–,–,–,–,–,–,–,–
COc1cc2c(cc1OC)C/C(=N\O)c1cc(OC)c(OC)cc1/C=C\2,> 100 µM,> 100 µM,> 96.4 µM,38.4 µM,95.8 µM,> 41.1 µM,> 100 µM,15.4 µM,73.3 µM,> 90.6 µM,–,–,–,–,–,–,–,–,–,–
COc1cc([C@@H]2c3cc4c(cc3[C@H](OC3OC5COC(C(C)C)OC5C(O)C3O)C3COC(=O)[C@@H]32)OCO4)cc(OC)c1OC (stereo not given in full),21.2 µM,> 100 µM,13.2 µM,9.46 µM,18 µM,> 21.2 µM,24.6 µM,7.11 µM,30.1 µM,> 100 µM,–,–,–,–,–,–,–,–,–,–
N#Cc1ccccc1C#C/C=C\C#Cc1ccccn1,> 100 µM,57.7 µM,33.5 µM,33.1 µM,29.6 µM,38.3 µM,> 100 µM,41.6 µM,30.3 µM,31.9 µM,–,–,–,–,–,–,–,–,–,–
Cc1ccc2c(=O)cc(-c3ccccc3)[nH]c2n1,> 100 µM,> 100 µM,> 55 µM,0.486 µM,45.7 µM,> 26.3 µM,> 55.2 µM,0.194 µM,0.853 µM,> 100 µM,–,–,–,–,–,–,–,–,–,–
CC(C)(C)c1ccc(OCCOc2ccc(C(C)(C)C)cc2NC=O)c(NC=O)c1,> 73.2 µM,98 µM,23.2 µM,28.2 µM,16.2 µM,34.7 µM,23.5 µM,7.32 µM,59.4 µM,> 58.3 µM,–,–,–,–,–,–,–,–,–,–
